In patent US6872562B2, “Herbicide resistant dinitrogen fixing bacteria and method of use” (priority 2001, dated 2005):

Tests used:
Wild type USDA 110 = experiment: Growth in Tulley's media with 5 mM glyphosate, wild type (Example 7); assay type: cell-based, Bradyrhizobium japonicum
Method: Duplicate cultures were evaluated from each of the original colony selections. […] The cultures were allowed to grow for 14 days, and then the OD of each culture was measured.

cultivar TV5866RR = experiment: Growth cabinet: nitrogenase activity (relative ARA) under soil-water deficits; assay type: in vivo, soybean (Glycine max)
Method: Plants were established in flow-through pots (Purcell et al., 1997) for nondestructive measurement of acetylene-reduction activity (ARA) as an indicator of relative nitrogenase activity. Pots were constructed of 10-cm-diameter, 40-cm-long polyvinyl chloride pipe, sealed at the bottom and top with end caps. Fittings were inserted into the bottom for drainage and introduction of air samples during ARA measurements, and into the top for air exhaust and sampling. Pot tare weights were recorded prior to adding potting mixture. Potting media and nutrients were the same as described in Examples 1-3. […] After allowing excess water to drain for 12 h, pot capacity weights were recorded. […]
ARA was measured beginning 28 DAE by introducing a 9:1 air to acetylene mixture at 0.5 L min^−1 into the bottom of the pots that were sealed around the plant root system. […] Ethylene concentration in the gas samples was quantified by gas chromatography using a flame ionization detector and a Porapak N column (de Silva et al., 1996). […] Ethylene concentrations were expressed as μmol C2H4 plant^−1h^−1, and means within an experiment and sample date were compared using standard errors. […]
Soil-water data were converted from pot capacity weight to fraction of the transpirable soil water (FTSW) (de Silva et al., 1996). […] Soil weight at zero transpirable water was determined to be 0.24 of the soil weight at pot capacity. […]

[1] = test system: GR soybean cultivars A5901RR and DK5961RR; experiment: Field experiments at Keiser and Fayetteville, Arkansas: biomass and seed yield; assay type: in vivo, soybean (Glycine max)
Method: Field experiments were conducted at Fayetteville and Keiser, Ark., to evaluate the response of GR soybean cultivars to foliar applications of glyphosate under field conditions susceptible to drought stress. […] Delannay et al. (1995) reported three experiments out of 58 in which yields were less than 1500 kg ha^−1, but there was no indication as to the cause of these low yields. The Fayetteville experiment was conducted on a Pembroke silt loam (Ultic Paleudalfs) on 15-cm-high beds spaced 1 m apart. Water was applied as needed until mid-reproductive development (R5) with sprinkle irrigation. At Keiser the soil was a Sharkey silty-clay (Vertic Haplaquepts), and soybean was planted on a flat seedbed with rows 0.96 m apart. Irrigation was applied with an overhead, lateral-move system.
Experiments at both locations were a factorial of two cultivars and five herbicide treatments in a randomized complete block design with four replications. Plots were four rows wide by 9 m long. […] The seeding rate was 370,000 ha^−1 at both locations.
Herbicides were applied as a broadcast treatment, sprayed over-the-top of the canopy with a CO2-powered backpack sprayer in a volume of 93 L ha^−1. […] All herbicide treatments contained appropriate surfactants. Plants were at V1, V4, and V9 development stages at 7, 21, and 35 DAE application timings, respectively, at both locations. R2 applications were made at 45 and 48 DAE at Fayetteville and Keiser, respectively. Plots were maintained weed free by hand weeding as needed. Four replications of the non-nodulating isoline of the cultivar ‘Lee’ were included at each location as an indicator of plant-available soil nitrogen.
Samples were prepared and analyzed for total nitrogen as previously described. Seed yield was determined by harvesting 4.5 m from each of the center two rows. Average seed mass was determined from a random sample of 100 seeds. Biomass data were evaluated by comparing the means±standard errors between herbicide treatments within a cultivar and sample date. […]

[2] = test system: soybean cultivar DK5961RR; experiment: Greenhouse Example 3: response to glyphosate with and without available soil nitrogen; assay type: in vivo, soybean (Glycine max)
Method: Treatments were a factorial arrangement of two harvest dates, plus and minus soil nitrogen, and plus and minus glyphosate application. Experimental conditions were similar to those described for Examples 1 and 2, including timing of nutrient applications. […] Plants were harvested at 19 and 40 DAE as described previously. For the plus nitrogen treatment, plants harvested at 19 and 40 DAE received in the nutrient solution at total of 150 and 300 mg N as NO3^−1, respectively. The experiment was a randomized complete block with six replications and was repeated.

[3] = DK5961RR, Harvest 1 (19 DAE), soil nitrogen no
[4] = DK5961RR, Harvest 1 (19 DAE), soil nitrogen yes
[5] = DK5961RR, Harvest 2 (40 DAE), averaged over soil nitrogen treatments

O=C(O)CNCP(=O)(O)O [glyphosate, N-(phosphonomethyl)glycine]
Growth, % of USDA 110 in the absence of glyphosate (Wild type USDA 110; 14 days): 33%
OD600 (Wild type USDA 110; USDA 110, after 14 days): 0.44 b^
Sensitivity of ARA to water deficits vs untreated plants (cultivar TV5866RR; in vivo): more sensitive
Nitrogenase activity, % of the well-watered control (cultivar TV5866RR; water-deficit plants at FTSW of 0.21, 1.68 kg ha^−1 on 5, 12, and 19 DAE): 71%
Soybean seed yield ([1]; Fayetteville, A5901RR, glyphosate 1: 7 & 21 DAE): 2053a kg ha^−1
Soybean seed yield ([1]; Fayetteville, A5901RR, glyphosate 2: 7 & 49 DAE): 2057a kg ha^−1
Soybean seed yield ([1]; Fayetteville, A5901RR, glyphosate 3: 21 & 35 DAE): 1999a kg ha^−1
Soybean seed yield ([1]; Fayetteville, DK5961RR, glyphosate 1: 7 & 21 DAE): 1854a kg ha^−1
Soybean seed yield ([1]; Fayetteville, DK5961RR, glyphosate 2: 7 & 49 DAE): 1798a kg ha^−1
Soybean seed yield ([1]; Fayetteville, DK5961RR, glyphosate 3: 21 & 35 DAE): 1992a kg ha^−1
Biomass vs untreated check ([1]; Keiser, A5901RR, 92 DAE): significantly less biomass
Soybean seed yield ([1]; Keiser, A5901RR, glyphosate 1: 1.68 kg ha^−1 at 7 & 21 DAE): 974b kg ha^−1
Soybean seed yield ([1]; Keiser, A5901RR, glyphosate 2: 1.68 kg ha^−1 at 7 & 49 DAE): 1138ab kg ha^−1
Soybean seed yield ([1]; Keiser, A5901RR, glyphosate 3: 1.68 kg ha^−1 at 21 & 35 DAE): 1050ab kg ha^−1
Yield vs check ([1]; Keiser, A5901RR, glyphosate at 7 followed by 21 DAE): significantly lower yield
Biomass vs other treatments ([1]; Keiser, DK5961RR, 92 DAE, glyphosate at 7 followed by 21 DAE or at 7 followed by 49 DAE): tended to be lower
Soybean seed yield ([1]; Keiser, DK5961RR, glyphosate 1: 7 & 21 DAE): 1197ab kg ha^−1
Soybean seed yield ([1]; Keiser, DK5961RR, glyphosate 2: 7 & 49 DAE): 989b kg ha^−1
Soybean seed yield ([1]; Keiser, DK5961RR, glyphosate 3: 21 & 35 DAE): 1291a kg ha^−1
Yield decrease ([1]; Keiser, DK5961RR, glyphosate at 7 followed by 21 DAE): 24%
Yield lower than untreated check ([1]; Keiser, DK5961RR, glyphosate at 7 followed by 49 DAE): 8%
Seed yields vs untreated check ([1]; Keiser, DK5961RR, other glyphosate and standard herbicide treatments): numerically equal to the untreated check
Plant biomass or nitrogen content effect ([2]; DK5961RR, 19 DAE, without soil nitrogen): did not decrease
Biomass Root [2, 3]: 0.30b g plant^−1
Biomass Shoot [2, 3]: 0.63bc g plant^−1
Nitrogen Root [2, 3]: 7.53b mg plant^−1
Nitrogen Shoot [2, 3]: 22.2c mg plant^−1
Biomass Shoot [2, 4]: 0.58c g plant^−1
Nitrogen Root [2, 4]: 5.77c mg plant^−1
Nitrogen Shoot [2, 4]: 31.0b mg plant^−1
Biomass Root ([2]; DK5961RR, Harvest 1 (19 DAE), soil nitrogen yes, 1.68 kg ha^−1 5 and 12 DAE): 0.20c g plant^−1
Biomass Root [2, 5]: 0.48 g plant^−1
Biomass Shoot [2, 5]: 1.81 g plant^−1
Nitrogen Root [2, 5]: 11.1 mg plant^−1
Nitrogen Shoot [2, 5]: 70.7 mg plant^−1
Shoot nitrogen content decrease ([2]; Harvest 2 (40 DAE), averaged across soil nitrogen treatments): 13%
